The assay deals with HUVECs. Type of assay: cell-based. The note with it: HUVEC proliferation, bFGF at 10 ng/ml or VEGF at 5 ng/ml, 48 hours, BrdU incorporation; read-out: IC50 on HUVECs. On the procedure:
HUVECs were routinely cultured to near confluency in EGM media (Clontech, Mountain View, California). The cells were trypsinized and plated in a 96-well plate at 5,000 cells per well per 100 μl EBM supplemented with 2% FCS and antibiotics. The cells were allowed to adhere to the plate for at least 12 hours. Then, bFGF at 10 ng/ml or VEGF at 5 ng/ml, and various concentrations of peptide, were added to the wells. The cells were cultured for 48 hours at 37 ° C. in a 5% CO2 atmosphere. Cell proliferation was determined using a bromo-deoxyuridine (BrdU) incorporation method as described by the manufacturer. Inhibition of cell proliferation was assessed by BrdU incorporation.
In general terms: Uptake of a labelled nucleoside into DNA is a usual measure of proliferation.

Non-standard residues stand in square brackets, D forms with d. No end group written: not given here. Some results are limits rather than exact numbers.

Usually IC50 stands for the point on the concentration scale where inhibition reaches its midpoint.

Take “240 (Ac-RRHHRQRVRIIF; also: dimer via C-terminal Phe to Lys linker) [compound 240]”: the IC50 is under 10 µM.

As for “241 (Ac-RRHRHQRVRIIF; also: dimer via C-terminal Phe to Lys linker) [compound 241]”, the half-inhibitory concentration (IC50) was under 10 µM.

Consider “242 (Ac-RRHRRQHVRIIF; also: dimer via C-terminal Phe to Lys linker) [compound 242]”, for which the IC50 was under 10 µM.

Consider “243 (Ac-RRHRRQRVHIIF; also: dimer via C-terminal Phe to Lys linker) [compound 243]”, for which the concentration for half-maximal inhibition (IC50) was under 10 µM.

Take “244 (Ac-RRRHRQHVRIIF; also: homodimer: C-termini of two chains bound to the two amines of a Lys linker) [compound 244]”: the concentration for half-maximal inhibition (IC50) is under 10 µM.

In the case of “245 (Ac-RRRHRQRVHIIF; also: homodimer: C-termini of two chains bound to the two amines of a Lys linker) [compound 245]”, the IC50 was 10 to 30 µM.

As for “246 (Ac-RRRRHQHVRIIF; also: homodimer: C-termini of two chains bound to the two amines of a Lys linker) [compound 246]”, the IC50 is under 10 µM.

On to “247 (Ac-RRRRHQRVHIIF; also: homodimer: C-termini of two chains bound to the two amines of a Lys linker) [compound 247]”, for which the IC50 is under 10 µM.

As for “248 (Ac-RRRRRQHVHIIF; also: homodimer: C-termini of two chains bound to the two amines of a Lys linker) [compound 248]”, the IC50 is under 10 µM.

In the case of “249 (Ac-RRRRRQAVAIEFK; not fully specified (C-terminus); also: homodimer: side chain of Lys13 bound to an Ida linker) [compound 249]”, the IC50 fell in the range of 10 to 30 µM.

In the case of “250 (Ac-RRRRRQAVAIHFK; not fully specified (C-terminus); also: homodimer: side chain of Lys13 bound to an Ida linker) [compound 250]”, the IC50 was under 10 µM.

As to “251 (Ac-RRRRRQAVAIPFK; not fully specified (C-terminus); also: homodimer: side chain of Lys13 bound to an Ida linker) [compound 251]”, the IC50 is over 30 µM.

Take “252 (Ac-ARRRRQRVAIIF[dK]; not fully specified (C-terminus); also: homodimer: side chain of Lys13 bound to an Ida linker) [compound 252]”: the IC50 is under 10 µM.

As to “253 (Ac-ARRRRQRVAII[dF]K; not fully specified (C-terminus); also: homodimer: side chain of Lys13 bound to an Ida linker) [compound 253]”, the IC50 is under 10 µM.

Take “255 (Ac-ARRRRQRVA[dI]IFK-NH2; not fully specified (residue 13); also: homodimer via Ida linker on Lys13 side chains) [compound 255]”: the IC50 was under 10 µM.

For the substance “256 (Ac-ARRRRQRV[dA]IIFK; not fully specified (C-terminus); also: homodimer: side chain of Lys13 bound to an Ida linker) [compound 256]”, the IC50 is under 10 µM.

For the substance “257 (Ac-ARRRRQR[dV]AIIFK; not fully specified (C-terminus); also: homodimer: side chain of Lys13 bound to an Ida linker) [compound 257]”, the IC50 is under 10 µM.

With “258 (Ac-ARRRRQ[dR]VAIIFK-NH2; not fully specified (residue 13); also: homodimer via Ida linker on Lys13 side chains) [compound 258]”, the IC50 was under 10 µM.

As for “259 (Ac-ARRRR[dQ]RVAIIFK-NH2; not fully specified (residue 13); also: homodimer via Ida linker on Lys13 side chains) [compound 259]”, the IC50 was under 10 µM.

For “260 (Ac-ARRR[dR]QRVAIIFK-NH2; not fully specified (residue 13); also: homodimer via Ida linker on Lys13 side chains) [compound 260]”, the IC50 is under 10 µM.

Regarding “261 (Ac-ARR[dR]RQRVAIIFK-NH2; not fully specified (residue 13); also: homodimer via Ida linker on Lys13 side chains) [compound 261]”, the IC50 is under 10 µM.

Consider “262 (Ac-AR[dR]RRQRVAIIFK-NH2; not fully specified (residue 13); also: homodimer via Ida linker on Lys13 side chains) [compound 262]”, for which the IC50 is under 10 µM.

On to “263 (Ac-A[dR]RRRQRVAIIFK-NH2; not fully specified (residue 13); also: homodimer via Ida linker on Lys13 side chains) [compound 263]”, for which the IC50 is under 10 µM.

In the case of “264 (Ac-[dA]RRRRQRVAIIFK-NH2; not fully specified (residue 13); also: homodimer via Ida linker on Lys13 side chains) [compound 264]”, the IC50 is under 10 µM.

Take “265 (Ac-RRRRRQAVAIGFK; not fully specified (C-terminus); also: homodimer: side chain of Lys13 bound to an Ida linker) [compound 265]”: the IC50 was under 10 µM.

For “266 (Ac-RRRRRQAVAIWFK; not fully specified (C-terminus); also: homodimer: side chain of Lys13 bound to an Ida linker) [compound 266]”, the IC50 was under 10 µM.

Turning to “268 (Ac-ARRRRQRVAIPFK-NH2; not fully specified (residue 13); also: homodimer: side chain of Lys13 bound to an Ida linker) [compound 268]”, the IC50 was over 30 µM.

For the substance “269 (Ac-ARRRRQRVAIEFK-NH2; not fully specified (residue 13); also: homodimer: side chain of Lys13 bound to an Ida linker) [compound 269]”, the IC50 is 10 to 30 µM.

On to “270 (Ac-RRRRRQAVAINFK-NH2; not fully specified (residue 13); also: homodimer: Lys13 side chain bound to Ida linker) [compound 270]”, for which the IC50 was under 10 µM.

In the case of “271 (Ac-ARRRRQRVAIYF; also: homodimer via Lys linker, Phe C-termini bound to the two Lys amino groups) [compound 271]”, the IC50 was under 10 µM.

“272 (Ac-RARRRQAVAINFK-NH2; not fully specified (residue 13); also: homodimer via Ida linker on Lys13 side chain) [compound 272]”: the IC50 is under 10 µM.

Take “273 (Ac-RARRRQAVAITFK-NH2; not fully specified (residue 13); also: homodimer: Lys13 side chain bound to Ida linker) [compound 273]”: the IC50 was under 10 µM.

In the case of “274 (Ac-RARRRQAVAIWFK-NH2; not fully specified (residue 13); also: homodimer via Ida linker on Lys13 side chain) [compound 274]”, the IC50 is under 10 µM.

Regarding “275 (Ac-RARRRQAVAIYFK-NH2; not fully specified (residue 13); also: homodimer via Ida linker on Lys13 side chain) [compound 275]”, the IC50 is under 10 µM.

With “276 (XRRRRQHVRIYFK; not fully specified; Xaa = Acylated Histidine; The side chain of Lysine at position 13 is covalently bound to an Ida linker forming a homodimer of residues 1 through 13.) [compound 276]”, the concentration for half-maximal inhibition (IC50) is under 10 µM.

With “277 (XRRRRQRVHIYFK; not fully specified; Xaa = Acylated Histidine; The side chain of Lysine at position 13 is covalently bound to an Ida linker forming a homodimer of residues 1 through 13.) [compound 277]”, the IC50 is under 10 µM.

In the case of “278 (Ac-RRRRRQHVHIYFK-NH2; not fully specified (residue 13); also: homodimer: Lys13 side chain bound to Ida linker) [compound 278]”, the IC50 was under 10 µM.

Turning to “280 (Ac-RRRRAQAVAIYFK-NH2; not fully specified (residue 13); also: homodimer via Ida linker on Lys13 side chain) [compound 280]”, the IC50 is under 10 µM.

Turning to “281 (Ac-RRRRHQAVAIYFK-NH2; not fully specified (residue 13); also: homodimer via Ida linker on Lys13 side chain) [compound 281]”, the IC50 was under 10 µM.

On to “282 (Ac-RRRRAQHVAIYFK-NH2; not fully specified (residue 13); also: homodimer: Lys13 side chain bound to Ida linker) [compound 282]”, for which the IC50 was under 10 µM.

Regarding “283 (Ac-RRRRAQAVHIYFK-NH2; not fully specified (residue 13); also: homodimer: Lys13 side chain bound to Ida linker) [compound 283]”, the IC50 was under 10 µM.

As to “284 (Ac-RRRRHQHVAIYFK-NH2; not fully specified (residue 13); also: homodimer: Lys13 side chain bound to Ida linker) [compound 284]”, the IC50 is under 10 µM.
